Laboratory results taken from paper PMC5485984, “Sugar-Binding Profiles of Chitin-Binding Lectins from the Hevein Family: A Comprehensive Study” (International Journal of Molecular Sciences, 2017).

Biological target: T1, DSA (Datura stramonium agglutinin) (Datura stramonium, UniProt A0A089ZWN7)
T1 construct: gene dsa-b; four hevein domains and extensin-like domain
T1 sequence (A0A089ZWN7 24-279): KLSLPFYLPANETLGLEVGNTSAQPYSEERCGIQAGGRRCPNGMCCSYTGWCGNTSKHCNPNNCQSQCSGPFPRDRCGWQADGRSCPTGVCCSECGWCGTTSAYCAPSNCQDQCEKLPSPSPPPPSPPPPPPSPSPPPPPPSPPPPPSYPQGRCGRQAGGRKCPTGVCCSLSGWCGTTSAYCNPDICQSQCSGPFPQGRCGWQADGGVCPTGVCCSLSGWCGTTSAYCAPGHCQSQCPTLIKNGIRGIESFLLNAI
Parameters: Frontal affinity chromatography, pyridylaminated oligosaccharides on Sepharose-immobilized lectin; Kd = Bt/(V-V0)
Details: binder
Method: For systematic comparison of sugar-binding properties of the six chitin-binding lectins, FAC was carried out with a previously established procedure. Briefly, to determine the Kd values of each of the six chitin-binding lectins for 124 PA-oligosaccharides, each of the lectins was immobilized on activated Sepharose at several concentrations: one for concentration-dependent analysis to determine the effective ligand content Bt (expressed in nmol) of a standard column, from which Kd values for a panel of PA-oligosaccharides were determined according to a simplified basic equation of FAC, Kd = Bt/(V − V0). The other(s) are supplementary to cover a wide range of possible Kd values, which is in direct relation to the observed value of V − V0 (for more detail, see Materials and Methods). […] It is often useful to discuss lectin-oligosaccharide interactions in terms of an affinity constant, Ka (1/Kd), instead of Kd. […] This was applied in the cases of DSA (6.0 and 1.5 mg/mL), UDA (6.0, 3.0, 1.0, and 0.3 mg/mL), WGA (7.0, 2.0, and 0.5 mg/mL), and LEL (6.0 and 0.5 mg/mL).

Compound	Kd [µM]
OC[C@@H](O)[C@@H](O[C@@H]1O[C@H](CO)[C@H](O)[C@H](O)[C@H]1O)[C@H](O)[C@@H](O)CNc1ccccn1 [compound 701, 701]	31
CC(=O)N[C@@H](CNc1ccccn1)[C@@H](O)[C@H](O[C@@H]1O[C@H](CO)[C@H](O)[C@H](O)[C@H]1O)[C@H](O)CO [compound 901, 901]	87
